# Laboratory results taken from patent publication US6821980B1, “Substituted 5-benzyl-2,4-diaminopyrimidines” (Basilea Pharmaceutica AG, priority 1999, dated 2004).
# Like-named read-outs stand apart in the source and are kept apart here.
# Assays:
# [1] = test system: Streptococcus pneumoniae 1/1; assay: MIC against Streptococcus pneumoniae 1/1; type: cell-based; details: Streptococcus pneumoniae 1/1, trimethoprim- and penicillin-resistant, serotype 6, clinical isolate, read-out: MIC Sp1/1
# [2] = test system: Staphylococcus aureus 101; assay: MIC against Staphylococcus aureus 101; type: cell-based; details: Staphylococcus aureus 101, MRSA- and trimethoprim-resistant, clinical isolate, read-out: MIC Sa101
# [3] = target: T1, purified DHFR of strain Sp1/1 of Streptococcus pneumoniae (Streptococcus pneumoniae serotype 4, UniProt Q54801); type: biochemical; details: IC50 against purified DHFR of strain Sp1/1
# T1 sequence (Q54801 1-168 I100L): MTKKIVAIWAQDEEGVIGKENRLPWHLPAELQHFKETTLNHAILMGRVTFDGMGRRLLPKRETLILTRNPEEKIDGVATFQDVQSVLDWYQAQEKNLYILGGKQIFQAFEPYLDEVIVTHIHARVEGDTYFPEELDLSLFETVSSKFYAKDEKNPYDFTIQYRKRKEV
# [4] = target: purified DHFR of strain 157/4696 of Staphylococcus aureus (Staphylococcus aureus, UniProt P13955); assay: biochemical
# Chain of purified DHFR of strain 157/4696 of Staphylococcus aureus (P13955 whole entry): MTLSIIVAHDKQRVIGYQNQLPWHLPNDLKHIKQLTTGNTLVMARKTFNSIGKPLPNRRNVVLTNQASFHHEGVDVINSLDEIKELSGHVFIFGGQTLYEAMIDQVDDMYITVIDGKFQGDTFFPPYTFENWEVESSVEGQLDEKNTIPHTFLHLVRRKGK
Compound,MIC ([1]; Table 2) [mg/L],MIC ([2]; Table 2) [mg/L],IC50 ([3]; Table 2) [µM],IC50 [4] [µM],MIC ([1]; Table 1) [mg/L],MIC ([2]; Table 1) [mg/L],IC50 ([3]; Table 1) [µM]
"CCOc1cc(Cc2cnc(N)nc2N)cc(OS(=O)(=O)C(C)CC)c1-c1ccc(O)cc1 (stereo not shown) [Example 15-g, Butane-2-sulphonic acid 4-(2,4-diamino-Dyrimidin-5-ylmethyl)-6-ethoxy-4′-hydroxy-biphenyl-2-yl ester]",0.5,2,0.025,0.039,–,–,–
"CCOc1cc(Cc2cnc(N)nc2N)cc(OS(=O)(=O)CC(C)(C)C)c1-c1ccc(O)cc1 [Example 15-h, 2,2-Dimethyl-propane-1-sulphonic acid 4-(2,4-diamino-pyrimidin-5-ylmethyl)-6-ethoxy-4′-hydroxa-biphenyl-2-yl ester]",0.25,4,0.0041,0.92,–,–,–
"CCOc1cc(Cc2cnc(N)nc2N)cc(OS(=O)C(C)(C)C)c1-c1ccc(O)cc1 (stereo not shown) [Example 15-i, 2-Methyl-propane-2-sulphinic acid 4-(2,4-diamino-pyrimidin-5-ylmethyl)-6-ethoxy-4′-hydroxy-biphenyl-2-yl ester]",4,2,0.022,0.081,–,–,–
"CCOc1cc(Cc2cnc(N)nc2N)cc(OS(=O)(=O)c2ccc(OC)c(F)c2)c1-c1ccc(O)cc1 [Example 15-j, 3-Fluoro-4-methoxy-benzenesulphonic acid 4-(2,4-diamino-pyrimidin-5-ylmethyl)-6-ethoxy-4′-hydroxy-biphenyl-2-yl ester]",1,8,0.0017,0.55,–,–,–
"CCOc1cc(Cc2cnc(N)nc2N)cc(OS(C)(=O)=O)c1-c1ccc(OC)cc1 [Example 16-a, Methanesulphonic acid 4-(2,4-diamino-pyrimidin-5-ylmethyl)-6-ethoxy-4′-methoxy-biphenyl-2-yl ester]",2,4,0.021,0.31,–,–,–
"CCOc1cc(Cc2cnc(N)nc2N)cc(OS(=O)(=O)CC)c1-c1ccc(OC)cc1 [Example 16-b, Ethanesulphonic acid 4-(2,4-diamino-pyrimidin-5-ylmethyl)-6-ethoxy-4′-methoxy-biphenyl-2-yl ester]",2,2,0.039,0.1,–,–,–
"CCOc1cc(Cc2cnc(N)nc2N)cc(OS(=O)(=O)C(C)C)c1-c1ccc(OC)cc1 [Example 16-c, Propane-2-sulphonic acid 4-(2,4-diamino-Ryimidin-5-ylmethyl)-6-ethoxy-4′-methoxy-biphenyl-2-yl ester]",2,2,0.018,0.26,–,–,–
"CCOc1cc(Cc2cnc(N)nc2N)cc(OS(C)(=O)=O)c1-c1ccc2c(c1)OCO2 [Example 17-a, Methanesulphonic acid 2-benzof[1,3]dioxol-5-yl-5-(2,4-diamino-Ryrimidin-5-ylmethyl)-3-ethoxy-phenyl ester]",2,4,0.038,0.6,–,–,–
"CCOc1cc(Cc2cnc(N)nc2N)cc(OS(=O)(=O)CC)c1-c1ccc2c(c1)OCO2 [Example 17-b, Ethanesulphonic acid 2-benzo[1.3]dioxol-5-yl-5-(2,4-diamino-Iyrimidin-5-ylmethyl)-3-ethoxy-phenyl ester]",2,4,0.038,0.37,–,–,–
"CCOc1cc(Cc2cnc(N)nc2N)cc(OS(=O)(=O)C(C)C)c1-c1ccc2c(c1)OCO2 [Example 17-c, Propane-2-sulphonic acid 2-benzo[1.3]dioxol-5-yl-5-(2,4-diamino-pyrimidin-5-ylmethyl)-3-ethoxy-phenyl ester]",2,2,0.033,0.18,–,–,–
"CCCS(=O)(=O)Oc1cc(Cc2cnc(N)nc2N)cc(OCC)c1-c1ccc2c(c1)OCO2 [Example 17-d, Propane-1-sulphonic acid 2-benzo[1.3]dioxol-5-yl-5-(2,4-diamino-pyrimidin-5-ylmethyl)-3-ethoxy-phenyl ester]",1,4,0.014,0.15,–,–,–
"CCOc1cc(Cc2cnc(N)nc2N)cc(OS(=O)(=O)C(C)C)c1-c1ccc(N)cc1 [Example 18, Propane-2-sulphonic acid 4′-amino-4-(2,4-diamino-pyrimidin-5-ylmethyl)-6-ethoxy-biphenyl-2-yl ester]",–,–,–,0.039,1,2,0.0056
"CCOc1cc(Cc2cnc(N)nc2N)cc(OS(=O)(=O)N(C)C)c1-c1cccc(N)c1 [Example 19-a, Dimethyl-sulphamic acid 3′-amino-4-(2,4-diamino-pyrimidin-5-ylmethyl)-6-ethoxy-biphenyl-2-yl ester]",1,1,0.0062,0.085,–,–,–
"CCOc1cc(Cc2cnc(N)nc2N)cc(OS(=O)(=O)N2CCCCC2)c1-c1cccc(N)c1 [Example 19-b, Piperidine-1-sulphonic acid 3′-amino-4-(2,4-diamino-pyrimidin-5-ylmethyl)-6-ethoxy-biphenyl-2-yl ester]",0.5,1,0.0024,0.13,–,–,–
"CCOc1cc(Cc2cnc(N)nc2N)cc(OS(=O)(=O)N2CCCC2)c1-c1cccc(N)c1 [Example 19-c, Pyrrolidine-1-sulphonic acid 3′-amino-4-(2,4-diamino-pyrimidin-5-vlmethyl)-6-ethoxy-biphenyl-2-yl ester]",1,2,0.019,0.066,–,–,–
"CCOc1cc(Cc2cnc(N)nc2N)cc(OS(=O)(=O)N(C)C(C)C)c1-c1cccc(N)c1 [Example 19-d, N-Isopropyl-N-methyl-sulphamic acid 3′-amino-4-(2,4-diamino-pyrimidin-5-ylmethyl)-6-ethoxy-biphenyl-2-yl ester]",2,2,0.0083,0.055,–,–,–
"CCOc1cc(Cc2cnc(N)nc2N)cc(OS(=O)(=O)N2CCOCC2)c1-c1cccc(N)c1 [Example 19-e, Morpholine-4-sulphonic acid 3′-amino-4-(2,4-diamino-pyrimidin-5-ylmethyl)-6-ethoxy-biphenyl-2-yl ester]",1,2,0.0039,0.038,–,–,–
"CCOc1cc(Cc2cnc(N)nc2N)cc(OS(=O)(=O)N(C)CC)c1-c1cccc(N)c1 [Example 19-f, N-Ethyl-N-methyl-sulphamic acid 3′-amino-4-(2,4-diamino-vyrimidin-5-ylmethyl)-6-ethoxy-biphenyl-2-yl ester]",1,1,0.0062,0.082,–,–,–
"CCOc1cc(Cc2cnc(N)nc2N)cc(OS(=O)(=O)N(C)C2CC2)c1-c1cccc(N)c1 [Example 19-g, N-Cclopropyl-N-methyl-sulphamic acid 3′-amino-4-(2,4-diamino-Ryrimidin-5-ylmethyl)-6-ethoxy-biphenyl-2-yl ester]",1,1,0.0068,0.056,–,–,–
"CCOc1cc(Cc2cnc(N)nc2N)cc(OS(=O)(=O)N(CC)CC)c1-c1cccc(N)c1 [Example 19-h, Diethyl-sulphamic acid 3′-amino-4-(2,4-diamino-pyrimidin-5-ylmethyl)-6-ethoxy-biphenyl-2-yl ester]",1,2,0.00055,0.16,–,–,–
"CCOc1cc(Cc2cnc(N)nc2N)cc(OS(=O)(=O)N(C)C)c1-c1ccc(O)cc1 [Example 20-a, Dimethyl-sulphamic acid 4-(2,4-diamino-pyrimidin-5-ylmethyl)-6-ethoxy-4′-hydroxy-biphenyl-2-yl ester]",1,2,0.0075,0.15,–,–,–
"CCOc1cc(Cc2cnc(N)nc2N)cc(OS(=O)(=O)N2CCCCC2)c1-c1ccc(O)cc1 [Example 20-b, Piperidine-1-sulphonic acid 4-(2,4-diamino-pyrimidin-5-ylmethyl)-6-ethoxy-4′-hydroxy-biphenyl-2-yl ester]",0.5,1,0.0018,0.14,–,–,–
"CCOc1cc(Cc2cnc(N)nc2N)cc(OS(=O)(=O)N2CCCC2)c1-c1ccc(O)cc1 [Example 20-c, Pyrrolidine-1-sulrbonic acid 4-(2,4-diamino-pyrimidin-5-ylmethyl)-6-ethoxy-4′-hydroxy-biphenyl-2-yl ester]",1,4,0.0081,0.18,–,–,–
"CCOc1cc(Cc2cnc(N)nc2N)cc(OS(=O)(=O)N2CCOCC2)c1-c1ccc(O)cc1 [Example 20-d, Morpholine-4-sulphonic acid 4-(2,4-diamino-pyrimidin-5-ylmethyl)-6-ethoxy-4′-hydroxy-biphenyl-2-yl ester]",1,8,0.0058,0.095,–,–,–
"CCOc1cc(Cc2cnc(N)nc2N)cc(OS(=O)(=O)N(C)C(C)C)c1-c1ccc(O)cc1 [Example 20-e, N-Isopropyl-N-methyl-sulphamic acid 4-(2,4-diamino-pvrimidin-5-ylmethyl)-6-ethoxy-4′-hydroxy-biphenyl-2-yl ester]",2,2,0.014,0.16,–,–,–
